Data as given in ChEMBL document CHEMBL1136781, “Comparison of in vitro P-glycoprotein screening assays: recommendations for their use in drug discovery” (J Med Chem, 2003).

Experiments:
[1] = Partition coefficient (logP); assay type: physicochemical; conditions: octanol/water
[2] = biological target: T1, ATP-dependent translocase ABCB1 (Mus musculus, UniProt P06795); test: Inhibition of P-glycoprotein, mouse L-mdr1b expressed in LLC-PK1 epithelial cells using calcein-AM polarisation assay; assay type: functional, cell-based
T1 sequence (P06795 whole entry): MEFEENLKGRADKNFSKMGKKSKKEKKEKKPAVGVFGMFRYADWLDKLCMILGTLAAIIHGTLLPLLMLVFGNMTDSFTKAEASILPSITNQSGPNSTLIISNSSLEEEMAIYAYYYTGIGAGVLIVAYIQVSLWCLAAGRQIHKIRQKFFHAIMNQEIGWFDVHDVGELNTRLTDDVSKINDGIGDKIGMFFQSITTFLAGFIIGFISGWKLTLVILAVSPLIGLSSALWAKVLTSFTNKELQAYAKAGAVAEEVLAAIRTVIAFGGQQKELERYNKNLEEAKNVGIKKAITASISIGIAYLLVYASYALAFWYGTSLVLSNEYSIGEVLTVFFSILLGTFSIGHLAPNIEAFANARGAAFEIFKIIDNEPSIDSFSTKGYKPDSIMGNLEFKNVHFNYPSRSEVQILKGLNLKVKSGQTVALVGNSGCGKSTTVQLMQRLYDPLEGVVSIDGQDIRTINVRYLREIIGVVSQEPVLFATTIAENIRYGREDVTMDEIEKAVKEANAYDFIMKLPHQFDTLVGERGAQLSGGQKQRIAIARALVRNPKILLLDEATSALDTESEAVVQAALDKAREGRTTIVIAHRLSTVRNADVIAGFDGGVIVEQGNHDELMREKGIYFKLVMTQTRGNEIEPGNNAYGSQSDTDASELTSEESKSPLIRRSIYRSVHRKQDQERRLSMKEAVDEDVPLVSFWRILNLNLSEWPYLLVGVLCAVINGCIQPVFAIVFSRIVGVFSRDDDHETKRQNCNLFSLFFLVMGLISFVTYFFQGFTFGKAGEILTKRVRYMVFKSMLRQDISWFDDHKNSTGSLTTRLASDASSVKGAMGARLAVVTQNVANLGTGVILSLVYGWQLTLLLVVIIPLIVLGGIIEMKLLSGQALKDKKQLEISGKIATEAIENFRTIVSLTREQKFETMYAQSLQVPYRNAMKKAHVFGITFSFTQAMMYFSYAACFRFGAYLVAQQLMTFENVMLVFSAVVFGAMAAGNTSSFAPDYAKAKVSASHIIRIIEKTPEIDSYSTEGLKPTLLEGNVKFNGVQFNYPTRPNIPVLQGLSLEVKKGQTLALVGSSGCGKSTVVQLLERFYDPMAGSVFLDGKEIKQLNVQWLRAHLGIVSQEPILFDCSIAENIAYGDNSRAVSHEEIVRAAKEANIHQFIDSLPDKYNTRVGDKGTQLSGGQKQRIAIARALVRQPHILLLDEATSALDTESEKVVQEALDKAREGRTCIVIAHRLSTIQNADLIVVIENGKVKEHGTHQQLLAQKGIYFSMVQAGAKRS

[3] = biological target: T2, ATP-dependent translocase ABCB1 (Homo sapiens, UniProt P08183); test: Inhibition of P-gp was determined using rhodamine-assay in human CaCo-2 cells; assay type: functional, cell-based; set-up: concentration or dose not given beside the values
Target sequence in this assay (P08183 whole entry): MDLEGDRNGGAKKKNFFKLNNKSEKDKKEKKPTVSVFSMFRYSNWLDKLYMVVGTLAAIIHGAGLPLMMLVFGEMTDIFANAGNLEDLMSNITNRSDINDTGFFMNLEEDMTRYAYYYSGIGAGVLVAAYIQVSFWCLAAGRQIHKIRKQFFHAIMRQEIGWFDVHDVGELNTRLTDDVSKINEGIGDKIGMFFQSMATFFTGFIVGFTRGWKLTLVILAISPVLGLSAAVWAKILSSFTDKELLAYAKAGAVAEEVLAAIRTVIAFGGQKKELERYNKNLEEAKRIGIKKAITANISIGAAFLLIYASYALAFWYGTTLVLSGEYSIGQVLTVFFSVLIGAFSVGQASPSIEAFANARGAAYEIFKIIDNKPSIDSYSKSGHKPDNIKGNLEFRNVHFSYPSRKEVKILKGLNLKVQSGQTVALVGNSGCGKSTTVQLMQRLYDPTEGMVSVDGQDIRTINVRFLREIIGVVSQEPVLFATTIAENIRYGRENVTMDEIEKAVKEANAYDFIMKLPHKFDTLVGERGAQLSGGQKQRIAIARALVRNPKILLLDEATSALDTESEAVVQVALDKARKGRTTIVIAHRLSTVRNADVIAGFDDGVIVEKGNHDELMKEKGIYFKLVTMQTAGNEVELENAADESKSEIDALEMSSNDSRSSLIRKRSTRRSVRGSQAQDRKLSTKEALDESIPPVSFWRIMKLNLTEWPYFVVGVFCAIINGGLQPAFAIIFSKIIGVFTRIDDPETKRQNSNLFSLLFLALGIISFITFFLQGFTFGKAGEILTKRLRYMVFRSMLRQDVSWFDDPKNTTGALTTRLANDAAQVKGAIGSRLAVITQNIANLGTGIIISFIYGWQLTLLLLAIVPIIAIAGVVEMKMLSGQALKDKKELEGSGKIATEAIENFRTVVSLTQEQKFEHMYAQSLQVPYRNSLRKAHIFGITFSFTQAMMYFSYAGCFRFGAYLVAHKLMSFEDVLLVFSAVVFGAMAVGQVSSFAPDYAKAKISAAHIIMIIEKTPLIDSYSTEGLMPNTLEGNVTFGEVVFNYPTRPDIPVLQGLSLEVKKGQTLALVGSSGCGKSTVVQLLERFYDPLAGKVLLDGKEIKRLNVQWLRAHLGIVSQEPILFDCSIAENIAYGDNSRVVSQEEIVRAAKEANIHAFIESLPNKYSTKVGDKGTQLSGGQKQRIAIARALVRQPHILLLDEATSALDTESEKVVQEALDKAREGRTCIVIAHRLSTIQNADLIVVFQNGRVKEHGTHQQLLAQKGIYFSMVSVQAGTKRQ

[4] = biological target: T2, ATP-dependent translocase ABCB1; test: Inhibition of P-glycoprotein using ATPase in MDR1 membranes; assay type: functional, cell membranes
Target sequence in this assay (P08183 whole entry): as above

[5] = biological target: T2, ATP-dependent translocase ABCB1; test: TP_TRANSPORTER: inhibition of Rhodamine 123 efflux in Caco-2 cells; assay type: functional, cell-based; set-up: concentration or dose not given beside the values; scale not given: the % may be the effect or the level left
Target sequence in this assay (P08183 whole entry): as above

[6] = biological target: T1, ATP-dependent translocase ABCB1; test: TP_TRANSPORTER: inhibition of Calcein-AM efflux in Mdr1b-expressing LLC-PK1 cells; assay type: functional, cell-based
[7] = biological target: T3, ATP-dependent translocase ABCB1 (Mus musculus, UniProt P21447); test: P-gp activity was measured by a direct transport assay, using polarized LLC-PK1 epithelial cells; assay type: functional, cell-based; conditions: human
T3 sequence (P21447 whole entry): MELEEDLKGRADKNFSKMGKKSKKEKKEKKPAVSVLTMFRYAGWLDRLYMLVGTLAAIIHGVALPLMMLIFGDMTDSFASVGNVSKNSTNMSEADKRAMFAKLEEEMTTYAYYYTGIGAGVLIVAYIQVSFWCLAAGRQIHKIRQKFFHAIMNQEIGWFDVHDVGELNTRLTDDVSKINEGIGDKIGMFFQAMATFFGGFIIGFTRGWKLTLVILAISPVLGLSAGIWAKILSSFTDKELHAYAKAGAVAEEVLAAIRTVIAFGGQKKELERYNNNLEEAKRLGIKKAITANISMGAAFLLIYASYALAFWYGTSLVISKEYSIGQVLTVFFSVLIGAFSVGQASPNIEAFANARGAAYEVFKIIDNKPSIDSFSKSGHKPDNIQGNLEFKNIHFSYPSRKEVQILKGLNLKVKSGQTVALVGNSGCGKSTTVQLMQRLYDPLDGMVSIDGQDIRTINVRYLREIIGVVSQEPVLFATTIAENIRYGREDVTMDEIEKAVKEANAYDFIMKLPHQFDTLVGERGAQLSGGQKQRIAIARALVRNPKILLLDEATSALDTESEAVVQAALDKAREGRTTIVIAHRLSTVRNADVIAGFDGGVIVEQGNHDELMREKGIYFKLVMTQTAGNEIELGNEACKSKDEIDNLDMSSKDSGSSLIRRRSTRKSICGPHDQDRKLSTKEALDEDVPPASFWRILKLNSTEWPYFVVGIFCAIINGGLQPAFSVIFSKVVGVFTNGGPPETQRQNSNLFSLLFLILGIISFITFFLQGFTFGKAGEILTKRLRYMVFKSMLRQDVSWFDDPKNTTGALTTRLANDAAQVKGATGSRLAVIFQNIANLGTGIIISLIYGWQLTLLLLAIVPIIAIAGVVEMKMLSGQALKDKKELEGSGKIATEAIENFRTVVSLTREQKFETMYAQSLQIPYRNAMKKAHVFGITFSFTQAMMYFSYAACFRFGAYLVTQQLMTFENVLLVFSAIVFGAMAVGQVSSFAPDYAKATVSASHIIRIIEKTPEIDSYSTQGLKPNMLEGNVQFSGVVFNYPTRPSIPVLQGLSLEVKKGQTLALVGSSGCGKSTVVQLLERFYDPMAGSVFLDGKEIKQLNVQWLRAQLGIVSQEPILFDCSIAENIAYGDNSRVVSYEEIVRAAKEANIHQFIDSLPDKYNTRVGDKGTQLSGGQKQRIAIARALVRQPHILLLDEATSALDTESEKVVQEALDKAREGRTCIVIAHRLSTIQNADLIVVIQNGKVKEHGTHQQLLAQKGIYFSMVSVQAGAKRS

[8] = biological target: T3, ATP-dependent translocase ABCB1; test: P-gp activity was measured by a direct transport assay, using polarized LLC-mdr1a epithelial cells; assay type: functional, cell-based; conditions: human, epithelial cell
[9] = biological target: T3, ATP-dependent translocase ABCB1; test: Inhibition of P-glycoprotein, mouse L-mdr1a expressed in LLC-PK1 epithelial cells using calcein-AM polarisation assay; assay type: functional, cell-based
[10] = biological target: T3, ATP-dependent translocase ABCB1; test: TP_TRANSPORTER: inhibition of Calcein-AM efflux in Mdr1a-expressing LLC-PK1 cells; assay type: functional, cell-based
Cytochrome P450 3A4 [11] = biological target: T4, Cytochrome P450 3A4 (Homo sapiens, UniProt P08684)
T4 sequence (P08684 whole entry): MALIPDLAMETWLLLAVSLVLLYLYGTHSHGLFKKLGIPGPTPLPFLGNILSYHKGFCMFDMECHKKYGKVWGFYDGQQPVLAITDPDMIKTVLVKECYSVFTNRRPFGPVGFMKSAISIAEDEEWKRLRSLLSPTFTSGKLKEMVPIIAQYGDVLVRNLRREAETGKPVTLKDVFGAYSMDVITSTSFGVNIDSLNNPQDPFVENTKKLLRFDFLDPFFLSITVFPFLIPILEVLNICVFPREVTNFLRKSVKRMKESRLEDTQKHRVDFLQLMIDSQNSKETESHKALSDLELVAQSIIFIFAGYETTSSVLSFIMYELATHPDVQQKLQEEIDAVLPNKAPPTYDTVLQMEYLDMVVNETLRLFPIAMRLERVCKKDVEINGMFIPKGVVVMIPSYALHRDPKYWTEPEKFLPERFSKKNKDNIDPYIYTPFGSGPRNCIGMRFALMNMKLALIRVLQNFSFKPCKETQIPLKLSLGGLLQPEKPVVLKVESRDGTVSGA
Description: Inhibition of human cytochrome P450 3A4

[12] = biological target: T2, ATP-dependent translocase ABCB1; test: P-gp activity was measured by a direct transport assay, using polarized LLC-MDR1 epithelial cells; conditions: epithelial cell
[13] = biological target: T2, ATP-dependent translocase ABCB1; test: Inhibition of P-glycoprotein, human L-MDR1 expressed in LLC-PK1 epithelial cells using calcein-AM polarisation assay; assay type: functional, cell-based
Target sequence in this assay (P08183 whole entry): as the sequence (P08183 whole entry) above

[14] = biological target: T2, ATP-dependent translocase ABCB1; test: TP_TRANSPORTER: inhibition of Calcein-AM efflux in MDR1-expressing LLC-PK1 cells; assay type: functional, cell-based
Target sequence in this assay (P08183 whole entry): as above

Cytochrome P450 3A4 [15] = biological target: T4, Cytochrome P450 3A4; remark: listed apart in the source
Description: Inhibition of human cytochrome P450 3A4

| Compound | logP ([1]; read-out: logP) | IC50 [2] [µM] | Inhibition [3] [%] | Activity [4] [nmol/min/mg] | Activity [5] [%] | IC50 [6] [µM] | IC50 [9] [µM] | IC50 [10] [µM] | other results |
| --- | --- | --- | --- | --- | --- | --- | --- | --- | --- |
| CC(C)(C)NC(=O)[C@@H]1C[C@@H]2CCCC[C@@H]2CN1C[C@@H](O)[C@H](Cc1ccccc1)NC(=O)[C@H](CC(N)=O)NC(=O)c1ccc2ccccc2n1 | 4.7 | > 50 | 43 | 30 | 43 | > 50 |  |  |  |
| CC1(C)SSC(C)(C)[C@@H](NC(=O)[C@@H](N)Cc2ccc(O)cc2)C(=O)NCC(=O)N[C@@H](Cc2ccccc2)C(=O)N[C@H]1C(=O)O | 1 | > 50 | 0 | 4 | 0 | > 50 | > 50 | > 50 | Ratio [7]: 0.8; Ratio [8]: 0.9; IC50 (Cytochrome P450 3A4 [11]): > 50 µM; Ratio [12]: 0.6 |
| Cc1c(O)cccc1C(=O)N[C@@H](CSc1ccccc1)[C@H](O)CN1C[C@H]2CCCC[C@H]2C[C@H]1C(=O)NC(C)(C)C |  |  | 30 | 6.2 | 30 |  | 2.3 | 2.3 | logP [1]: 5.8 |
| COc1ccc(CCN2CCC(Nc3nc4ccccc4n3Cc3ccc(F)cc3)CC2)cc1 [ASTEMIZOLE] | 5.7 | 1.7 | 39 | 18 | 39 | 1.7 | 1.3 | 1.3 |  |
| CN/C(=N/CCSCc1nc[nH]c1C)NC#N [CIMETIDINE] |  | > 50 | 4 | 2.8 | 4 | > 50 |  |  |  |
| Clc1ccccc1C(c1ccccc1)(c1ccccc1)n1ccnc1 [CLOTRIMAZOLE] | 5.3 | 3.5 | 29 | 7.5 | 29 | 3.5 | 4.8 | 4.8 |  |
| COc1cc2c(c(OC)c1OC)-c1ccc(OC)c(=O)cc1[C@@H](NC(C)=O)CC2 [COLCHICINE] |  | > 50 | 8 | 0.1 | 8 | > 50 | > 50 | > 50 | IC50 [13]: > 50 µM; IC50 [14]: > 50 µM |
| C[C@@H]1C[C@H]2[C@@H]3CCC4=CC(=O)C=C[C@]4(C)[C@@]3(F)[C@@H](O)C[C@]2(C)[C@@]1(O)C(=O)CO [DEXAMETHASONE] | 1.7 | > 50 | 0 | 4 | 0 | > 50 | > 50 | > 50 | IC50 [13]: > 50 µM; IC50 [14]: > 50 µM |
| C[C@H]1O[C@@H](O[C@H]2[C@@H](O)C[C@H](O[C@H]3[C@@H](O)C[C@H](O[C@H]4CC[C@@]5(C)[C@H](CC[C@@H]6[C@@H]5C[C@@H](O)[C@]5(C)[C@@H](C7=CC(=O)OC7)CC[C@]65O)C4)O[C@@H]3C)O[C@@H]2C)C[C@H](O)[C@@H]1O [DIGOXIN] |  | > 50 |  |  |  | > 50 | > 50 | > 50 |  |
| CC[C@H]1OC(=O)[C@H](C)[C@@H](O[C@H]2C[C@@](C)(OC)[C@@H](O)[C@H](C)O2)[C@H](C)[C@@H](O[C@@H]2O[C@H](C)C[C@H](N(C)C)[C@H]2O)[C@](C)(O)C[C@@H](C)C(=O)[C@H](C)[C@@H](O)[C@]1(C)O [ERYTHROMYCIN] | 2.5 |  |  | 4 |  |  | > 50 |  | IC50 (Cytochrome P450 3A4 [11]): 33 µM |
| COc1cc([C@@H]2c3cc4c(cc3[C@@H](O[C@@H]3O[C@@H]5CO[C@@H](C)O[C@H]5[C@H](O)[C@H]3O)[C@H]3COC(=O)[C@H]23)OCO4)cc(OC)c1O [ETOPOSIDE] | 0.6 | > 50 |  | -0.2 |  | > 50 |  |  |  |
| CCC(C)n1ncn(-c2ccc(N3CCN(c4ccc(OCC5COC(Cn6cncn6)(c6ccc(Cl)cc6Cl)O5)cc4)CC3)cc2)c1=O (centres undefined) [ITRACONAZOLE] |  |  |  |  | 2 |  |  | 0.2 |  |
| CCC(C)n1ncn(-c2ccc(N3CCN(c4ccc(OC[C@H]5CO[C@](Cn6cncn6)(c6ccc(Cl)cc6Cl)O5)cc4)CC3)cc2)c1=O (some centres undefined) [ITRACONAZOLE] | 6.5 |  | 2 | 18 |  |  | 0.2 |  |  |
| COCC(=O)O[C@]1(CCN(C)CCCc2nc3ccccc3[nH]2)CCc2cc(F)ccc2[C@@H]1C(C)C [MIBEFRADIL] |  | 10 | 60 | 8.9 | 60 | 10 | 7.4 | 7.4 | logP [1]: 6.2 |
| Clc1ccc(COC(Cn2ccnc2)c2ccc(Cl)cc2Cl)c(Cl)c1 (centres undefined) [MICONAZOLE] | 5.8 |  | 22 | 1 | 22 |  | 7.8 | 7.8 |  |
| Cc1ncc2n1-c1ccc(Cl)cc1C(c1ccccc1F)=NC2 [MIDAZOLAM] | 3.3 | 33 | 12 | 6 | 12 | 33 | > 50 | > 50 | IC50 [13]: > 50 µM; IC50 [14]: > 50 µM |
| COC(=O)C1=C(C)NC(C)=C(C(=O)OCCN(C)Cc2ccccc2)C1c1cccc([N+](=O)[O-])c1 (centres undefined) [NICARDIPINE] | 5.5 | 8 |  | 18 | 100 | 8 | 2.5 | 2.5 |  |
| CC1(C)S[C@@H]2[C@H](NC(=O)Cc3ccccc3)C(=O)N2[C@H]1C(=O)O [PENICILLIN G] |  |  |  |  |  |  |  |  | Ratio [8]: 1.1 |
| O=c1[nH]c2ccccc2n1C1CCN(CCCC(c2ccc(F)cc2)c2ccc(F)cc2)CC1 [PIMOZIDE] |  | > 50 | 37 | 11 | 37 | > 50 |  |  |  |
| C=C[C@H]1C[N@@]2CC[C@H]1C[C@@H]2[C@@H](O)c1ccnc2ccc(OC)cc12 [QUINIDINE] | 2.8 | 10 |  | 20 |  | 10 | 13 | 13 |  |
| CN/C(=C\[N+](=O)[O-])NCCSCc1ccc(CN(C)C)o1 [RANITIDINE] | 0.6 | > 50 | 0 | -2.4 |  |  | > 50 |  | IC50 [13]: > 50 µM |
| CNC(=C[N+](=O)[O-])NCCSCc1ccc(CN(C)C)o1 [RANITIDINE] |  |  |  |  | 0 | > 50 |  | > 50 | IC50 [14]: > 50 µM |
| CC(C)c1nc(CN(C)C(=O)N[C@H](C(=O)N[C@@H](Cc2ccccc2)C[C@H](O)[C@H](Cc2ccccc2)NC(=O)OCc2cncs2)C(C)C)cs1 [RITONAVIR] | 4.9 |  |  |  |  |  |  |  |  |
| CC(C)(C)c1ccc(C(O)CCCN2CCC(C(O)(c3ccccc3)c3ccccc3)CC2)cc1 (centres undefined) [TERFENADINE] | 5.7 | 2 |  | 0.4 |  | 2 |  |  |  |
| CC[C@]1(O)C[C@@H]2CN(CCc3c([nH]c4ccccc34)[C@@](C(=O)OC)(c3cc4c(cc3OC)N(C)[C@H]3[C@@](O)(C(=O)OC)[C@H](OC(C)=O)[C@]5(CC)C=CCN6CC[C@]43[C@@H]65)C2)C1 [VINBLASTINE] |  | 8 | 75 | 33 | 75 | 8 | > 50 | > 50 | logP [1]: 5.2 |
| IVERMECTIN |  |  | 34 | -3.4 | 34 |  |  |  | logP [1]: 4; IC50 ([2]; llc-pk1): 0.5 µM; IC50 ([13]; llc-pk1): 0.1 µM; IC50 ([9]; llc-pk1): 0.5 µM; IC50 ([10]; llc-pk1): 0.5 µM; IC50 ([14]; llc-pk1): 0.1 µM; IC50 ([6]; llc-pk1): 0.5 µM; IC50 (Cytochrome P450 3A4 [15]): > 50 µM |
